These results are taken from ChEMBL document CHEMBL3991601, “The target landscape of clinical kinase drugs” (Science, 2017).

Experiment [1] deals with T1, Serine/threonine-protein kinase TAO2 (Homo sapiens, UniProt Q9UL54).
T1 sequence (Q9UL54 whole entry): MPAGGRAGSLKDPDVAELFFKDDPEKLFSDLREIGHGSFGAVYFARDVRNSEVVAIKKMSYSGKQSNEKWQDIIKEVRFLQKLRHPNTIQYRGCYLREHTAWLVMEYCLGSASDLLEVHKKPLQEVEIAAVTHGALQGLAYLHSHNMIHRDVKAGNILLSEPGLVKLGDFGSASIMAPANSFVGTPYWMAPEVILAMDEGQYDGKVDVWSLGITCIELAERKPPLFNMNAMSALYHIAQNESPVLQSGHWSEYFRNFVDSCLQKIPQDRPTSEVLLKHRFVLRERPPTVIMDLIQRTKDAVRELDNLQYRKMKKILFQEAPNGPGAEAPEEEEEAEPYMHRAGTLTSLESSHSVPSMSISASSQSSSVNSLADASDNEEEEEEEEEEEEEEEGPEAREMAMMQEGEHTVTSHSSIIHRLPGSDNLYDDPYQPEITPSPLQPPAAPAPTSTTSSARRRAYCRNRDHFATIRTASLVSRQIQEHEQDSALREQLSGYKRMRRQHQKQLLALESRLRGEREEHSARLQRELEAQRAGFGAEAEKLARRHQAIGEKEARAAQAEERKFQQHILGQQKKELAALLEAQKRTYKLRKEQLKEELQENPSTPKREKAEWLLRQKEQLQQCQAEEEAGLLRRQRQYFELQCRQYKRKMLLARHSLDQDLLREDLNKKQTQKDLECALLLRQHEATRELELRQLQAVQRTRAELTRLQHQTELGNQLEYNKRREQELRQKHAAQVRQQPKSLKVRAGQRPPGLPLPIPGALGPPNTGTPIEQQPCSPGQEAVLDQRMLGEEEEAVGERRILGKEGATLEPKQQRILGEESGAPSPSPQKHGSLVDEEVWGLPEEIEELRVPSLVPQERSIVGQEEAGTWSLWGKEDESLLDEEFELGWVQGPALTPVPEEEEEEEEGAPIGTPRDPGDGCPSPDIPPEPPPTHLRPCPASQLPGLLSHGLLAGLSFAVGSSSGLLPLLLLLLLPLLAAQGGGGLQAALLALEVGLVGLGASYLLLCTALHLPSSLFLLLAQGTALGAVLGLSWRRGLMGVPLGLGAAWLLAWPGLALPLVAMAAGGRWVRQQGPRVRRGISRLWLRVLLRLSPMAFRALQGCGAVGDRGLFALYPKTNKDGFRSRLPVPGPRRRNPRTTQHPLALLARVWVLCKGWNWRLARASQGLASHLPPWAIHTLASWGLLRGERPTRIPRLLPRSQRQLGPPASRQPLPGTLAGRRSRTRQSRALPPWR

For experiment [2], the target named is Macrophage-stimulating protein receptor (Homo sapiens, UniProt Q04912).
Chain of Macrophage-stimulating protein receptor (Q04912 25-304 limits assumed): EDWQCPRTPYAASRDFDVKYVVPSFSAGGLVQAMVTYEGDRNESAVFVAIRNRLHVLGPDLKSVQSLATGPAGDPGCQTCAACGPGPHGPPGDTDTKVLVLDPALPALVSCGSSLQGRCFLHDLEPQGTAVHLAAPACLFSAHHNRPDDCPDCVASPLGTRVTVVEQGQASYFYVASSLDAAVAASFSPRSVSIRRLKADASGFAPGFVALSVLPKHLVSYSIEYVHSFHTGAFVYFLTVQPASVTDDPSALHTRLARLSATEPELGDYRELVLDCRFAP
Chain of Macrophage-stimulating protein receptor (Q04912 310-1400 limits assumed): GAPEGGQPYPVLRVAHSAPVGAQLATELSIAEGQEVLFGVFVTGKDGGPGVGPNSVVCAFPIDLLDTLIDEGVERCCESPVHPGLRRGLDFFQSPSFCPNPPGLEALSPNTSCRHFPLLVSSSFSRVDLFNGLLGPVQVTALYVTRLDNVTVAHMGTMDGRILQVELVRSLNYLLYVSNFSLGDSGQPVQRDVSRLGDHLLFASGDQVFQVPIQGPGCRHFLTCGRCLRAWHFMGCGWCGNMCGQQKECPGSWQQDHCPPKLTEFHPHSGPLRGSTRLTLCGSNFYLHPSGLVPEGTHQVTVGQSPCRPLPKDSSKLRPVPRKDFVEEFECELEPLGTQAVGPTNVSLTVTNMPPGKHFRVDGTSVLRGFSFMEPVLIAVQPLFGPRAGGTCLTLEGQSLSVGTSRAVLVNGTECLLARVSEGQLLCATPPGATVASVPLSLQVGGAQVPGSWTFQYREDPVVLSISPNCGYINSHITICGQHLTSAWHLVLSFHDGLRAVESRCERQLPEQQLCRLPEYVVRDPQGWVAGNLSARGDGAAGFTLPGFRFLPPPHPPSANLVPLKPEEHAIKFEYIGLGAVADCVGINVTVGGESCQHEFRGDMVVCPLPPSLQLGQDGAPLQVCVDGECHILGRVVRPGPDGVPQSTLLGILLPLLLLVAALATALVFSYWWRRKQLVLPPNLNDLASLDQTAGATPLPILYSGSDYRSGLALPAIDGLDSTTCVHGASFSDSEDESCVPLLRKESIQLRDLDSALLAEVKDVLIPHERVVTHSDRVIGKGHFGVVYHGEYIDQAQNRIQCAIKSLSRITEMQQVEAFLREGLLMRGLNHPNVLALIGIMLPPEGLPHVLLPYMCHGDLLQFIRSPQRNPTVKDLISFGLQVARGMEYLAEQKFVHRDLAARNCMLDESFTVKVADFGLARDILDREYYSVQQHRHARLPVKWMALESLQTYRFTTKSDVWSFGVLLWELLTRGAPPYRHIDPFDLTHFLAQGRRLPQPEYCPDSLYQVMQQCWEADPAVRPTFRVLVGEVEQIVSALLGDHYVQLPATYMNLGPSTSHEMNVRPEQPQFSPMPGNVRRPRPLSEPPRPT
Experiment [3] addresses Casein kinase I isoform gamma-1 (Homo sapiens, UniProt Q9HCP0).
Experiment [4] has as its target T2, Serine/threonine-protein kinase Chk1 (Homo sapiens, UniProt O14757).
T2 sequence (O14757 whole entry): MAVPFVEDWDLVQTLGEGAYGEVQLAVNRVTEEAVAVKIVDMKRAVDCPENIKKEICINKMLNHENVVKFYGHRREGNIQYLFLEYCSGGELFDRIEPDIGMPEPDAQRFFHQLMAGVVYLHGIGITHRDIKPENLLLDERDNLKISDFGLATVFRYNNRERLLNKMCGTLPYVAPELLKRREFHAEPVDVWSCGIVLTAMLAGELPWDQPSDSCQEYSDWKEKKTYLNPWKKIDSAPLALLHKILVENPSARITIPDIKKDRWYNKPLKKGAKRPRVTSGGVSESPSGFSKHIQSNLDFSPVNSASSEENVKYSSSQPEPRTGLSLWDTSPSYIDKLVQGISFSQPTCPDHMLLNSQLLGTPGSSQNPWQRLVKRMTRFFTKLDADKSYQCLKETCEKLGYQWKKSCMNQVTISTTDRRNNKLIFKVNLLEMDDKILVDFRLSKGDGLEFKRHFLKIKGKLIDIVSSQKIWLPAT

The target in experiment [5] is T3, Dynamin-like GTPase OPA1, mitochondrial (Homo sapiens, UniProt O60313).
T3 sequence (O60313 whole entry): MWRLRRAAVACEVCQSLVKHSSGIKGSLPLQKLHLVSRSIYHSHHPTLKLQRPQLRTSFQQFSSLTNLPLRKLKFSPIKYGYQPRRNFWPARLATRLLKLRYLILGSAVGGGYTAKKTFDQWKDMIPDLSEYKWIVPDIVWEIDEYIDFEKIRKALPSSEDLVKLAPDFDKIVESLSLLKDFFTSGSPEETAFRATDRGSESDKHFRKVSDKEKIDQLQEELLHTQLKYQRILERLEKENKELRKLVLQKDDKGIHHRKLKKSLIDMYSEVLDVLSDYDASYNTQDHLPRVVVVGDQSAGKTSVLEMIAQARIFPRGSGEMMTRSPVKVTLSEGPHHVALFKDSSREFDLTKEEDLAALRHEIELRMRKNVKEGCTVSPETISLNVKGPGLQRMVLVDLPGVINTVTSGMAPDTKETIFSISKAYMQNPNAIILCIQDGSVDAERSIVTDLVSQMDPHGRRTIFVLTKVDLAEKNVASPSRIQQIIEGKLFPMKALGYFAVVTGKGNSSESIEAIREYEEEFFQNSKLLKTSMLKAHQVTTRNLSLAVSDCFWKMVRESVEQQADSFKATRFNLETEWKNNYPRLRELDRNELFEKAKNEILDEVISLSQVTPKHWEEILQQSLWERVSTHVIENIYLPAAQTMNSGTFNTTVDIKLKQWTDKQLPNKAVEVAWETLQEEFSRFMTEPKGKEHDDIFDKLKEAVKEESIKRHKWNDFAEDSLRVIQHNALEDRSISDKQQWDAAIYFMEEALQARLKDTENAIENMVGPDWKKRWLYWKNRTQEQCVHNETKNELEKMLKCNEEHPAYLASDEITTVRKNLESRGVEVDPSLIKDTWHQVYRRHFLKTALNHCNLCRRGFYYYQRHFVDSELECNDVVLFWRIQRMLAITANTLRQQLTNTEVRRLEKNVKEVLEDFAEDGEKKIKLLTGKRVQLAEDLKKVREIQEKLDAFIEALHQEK

Activity calls are given as the source filed them. Rule as the data show it, for most assays here: actives have a measured Kd and inactives only a lower limit. Some results are limits rather than exact numbers.
Also: in the data inactive means no Kd found up to 30 µM.

Chain of Casein kinase I isoform gamma-1 (Q9HCP0 whole entry, canonical isoform): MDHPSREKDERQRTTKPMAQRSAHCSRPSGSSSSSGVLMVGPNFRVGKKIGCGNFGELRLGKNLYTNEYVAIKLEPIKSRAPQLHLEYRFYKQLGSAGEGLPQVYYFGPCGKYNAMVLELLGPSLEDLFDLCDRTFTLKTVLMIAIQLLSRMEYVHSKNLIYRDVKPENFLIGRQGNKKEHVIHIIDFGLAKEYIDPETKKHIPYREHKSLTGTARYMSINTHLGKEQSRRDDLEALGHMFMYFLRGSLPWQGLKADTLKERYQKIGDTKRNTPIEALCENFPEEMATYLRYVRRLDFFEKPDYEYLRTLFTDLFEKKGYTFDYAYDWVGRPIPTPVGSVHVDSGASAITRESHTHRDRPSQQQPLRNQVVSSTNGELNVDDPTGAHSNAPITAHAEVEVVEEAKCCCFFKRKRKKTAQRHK

In general, Kd refers to the equilibrium constant for the complex coming apart. Take `O=c1[nH]ccc2cc(OC3CCNCC3)ccc12` [SAR-407899 FREE BASE]: the Kd in experiment [1], in experiment [2], in experiment [3], in experiment [4] and in experiment [5] was > 30 µM (inactive) throughout.
For `CN1CCN(CCOc2cc(OC3CCOCC3)c3c(Nc4c(Cl)ccc5c4OCO5)ncnc3c2)CC1` [SARACATINIB], the Kd in experiment [1], in experiment [2], in experiment [3], in experiment [4] and in experiment [5] was > 30 µM (inactive) each time.
In the case of `CO[C@H]1C[C@@H]2CC[C@@H](C)[C@@](O)(O2)C(=O)C(=O)N2CCCC[C@H]2C(=O)O[C@H]([C@H](C)C[C@@H]2CC[C@@H](O)[C@H](OC)C2)CC(=O)[C@H](C)/C=C(\C)[C@@H](O)[C@@H](OC)C(=O)[C@H](C)C[C@H](C)/C=C/C=C/C=C/1C` [SIROLIMUS], the Kd in experiment [1], in experiment [2], in experiment [3], in experiment [4] and in experiment [5] was > 30 µM (inactive) throughout.
On to `CCS(=O)(=O)c1cccc(-c2cc(C(=O)NC3CCN(C)CC3)c(C)c3[nH]c4ncc(C)cc4c23)c1` [TAK-901], for which the Kd in experiment [1] was > 30 µM (inactive); in experiment [2], > 30 µM (inactive); in experiment [3], > 30 µM (inactive); in experiment [4], 1.75 µM (active); in experiment [5], > 30 µM (inactive).
On to `CO[C@H]1C[C@@H]2CC[C@@H](C)[C@@](O)(O2)C(=O)C(=O)N2CCCC[C@H]2C(=O)O[C@H]([C@H](C)C[C@@H]2CC[C@@H](OC(=O)C(C)(CO)CO)[C@H](OC)C2)CC(=O)[C@H](C)/C=C(\C)[C@@H](O)[C@@H](OC)C(=O)[C@H](C)C[C@H](C)/C=C/C=C/C=C/1C` [TEMSIROLIMUS], for which the Kd in experiment [1], in experiment [2], in experiment [3], in experiment [4] and in experiment [5] was > 30 µM (inactive) each time.
Regarding `COc1cc2c(Nc3ccc(Cl)c(Cl)c3F)ncnc2cc1OC[C@@H]1C[C@@H]2CN(C)C[C@@H]2C1` [TESEVATINIB], the Kd in experiment [1], in experiment [2], in experiment [3], in experiment [4] and in experiment [5] was > 30 µM (inactive) in each case.
Regarding `O=C(Cc1ccc(-c2ccc(OCCN3CCOCC3)cc2)cn1)NCc1ccccc1` [TIRBANIBULIN], the Kd in experiment [1], in experiment [2], in experiment [3], in experiment [4] and in experiment [5] was > 30 µM (inactive) in each case.
In the case of `O=C1NC(=O)[C@@H](c2cn3c4c(cccc24)CCC3)[C@@H]1c1c[nH]c2ccccc12` [TIVANTINIB], the Kd in experiment [1] is > 30 µM (inactive); in experiment [2] it was > 30 µM (inactive); in experiment [3], > 30 µM (inactive); in experiment [4], > 30 µM (inactive); in experiment [5], 0.017 µM.
For the molecule `C[C@@H](NC(=O)c1ncnc(N)c1Cl)c1ncc(C(=O)Nc2cc(C(F)(F)F)c(Cl)cn2)s1` [TOVORAFENIB], the Kd in experiment [1], in experiment [2], in experiment [3], in experiment [4] and in experiment [5] was > 30 µM (inactive) throughout.
Regarding `Cc1cc(Nc2ncnc3ccc(NC4=NC(C)(C)CO4)cc23)ccc1Oc1ccn2ncnc2c1` [TUCATINIB], the Kd in experiment [1], in experiment [2], in experiment [3], in experiment [4] and in experiment [5] was > 30 µM (inactive) in each case.
For the molecule `Cn1ncc(Cl)c1-c1cc(C(=O)N[C@H](CN)Cc2ccc(F)c(F)c2)oc1Cl` [UPROSERTIB], the Kd in experiment [1], in experiment [2], in experiment [3], in experiment [4] and in experiment [5] was > 30 µM (inactive) each time.
Take `CC(C)c1cc(CNc2nc(Nc3cc(C4CC4)[nH]n3)cc(N3CCN(C)CC3)n2)on1` [XL-228]: the Kd was > 30 µM (inactive) in experiment [1]; 2.37 µM (active) in experiment [2]; > 30 µM (inactive) in experiment [3]; > 30 µM (inactive) in experiment [4]; > 30 µM (inactive) in experiment [5].
Consider `C[C@@H](N)c1ccc(C(=O)Nc2ccnc3[nH]ccc23)cc1` [Y-39983], for which the Kd in experiment [1], in experiment [2], in experiment [3], in experiment [4] and in experiment [5] was > 30 µM (inactive) in each case.
As to `CN1C/C=C/CCOc2cccc(c2)-c2ccnc(n2)Nc2cccc(c2)C1` [ZOTIRACICLIB], the Kd in experiment [1] is 1.07 µM (active); in experiment [2], > 30 µM (inactive); in experiment [3], > 30 µM (inactive); in experiment [4], > 30 µM (inactive); in experiment [5] it was > 30 µM (inactive).
